# Measurements reported in ChEMBL document CHEMBL1201862, “PubChem BioAssay data set” (2004).
#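 Growth conditions: 96-well plates. Treatment: test compound, 48 hours, 5 concentrations. Analysis: linear interpolation between bracketing concentrations; unreached endpoints set to highest concentration. GI50 marks 50% less growth.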 Activity calls are given as the source filed them. No stated cut-off is given here; in the data, active = GI50 up to about 1.1 µM and inactive = higher.
# Legend:
# Test in all cases: NCI tumour cell line growth inhibition, 48 h
# [1] = test system: 786-0
# [2] = test system: A498
# [3] = test system: A549
# [4] = test system: ACHN
# [5] = test system: BT-549
# [6] = test system: CAKI-1
# [7] = test system: CCRF-CEM
# [8] = test system: COLO 205
# [9] = test system: EKVX
# [10] = test system: HCC 2998
# [11] = test system: HCT-116
# [12] = test system: HCT-15
# [13] = test system: HL-60
# [14] = test system: HOP-62
# [15] = test system: HOP-92
# [16] = test system: HT-29
# [17] = test system: Hs-578T
# [18] = test system: IGROV-1
# [19] = test system: K562
# [20] = test system: KM12
# [21] = test system: LOX IMVI
# [22] = test system: M14
# [23] = test system: MCF7
# [24] = test system: MDA-MB-231
# [25] = test system: MDA-MB-435
# [26] = test system: MDA-N
# [27] = test system: MOLT-4
# [28] = test system: Malme-3M
# [29] = test system: NCI-H226
# [30] = test system: NCI-H23
# [31] = test system: NCI-H460
# [32] = test system: NCI/ADR-RES
# [33] = test system: OVCAR-3
# [34] = test system: OVCAR-4
# [35] = test system: OVCAR-5
# [36] = test system: OVCAR-8
# [37] = test system: PC-3
# [38] = test system: RXF 393
# [39] = test system: SF-295
# [40] = test system: SF-539
# [41] = test system: SK-MEL-28
# [42] = test system: SK-MEL-2
# [43] = test system: SK-MEL-5
# [44] = test system: SK-OV-3
# [45] = test system: SN12C
# [46] = test system: SNB-19
# [47] = test system: SNB-75
# [48] = test system: SR
# [49] = test system: SW-620
# [50] = test system: TK-10
# [51] = test system: U-251
# [52] = test system: UACC-257
# [53] = test system: UACC-62
# [54] = test system: UO-31
# [55] = test system: DU-145
# [56] = test system: NCI-H522
# [57] = test system: RPMI-8226
# [58] = test system: SF-268
smiles,measurement,setting,value
CN(C)c1ccc(/C=N/N=C2\C(=O)Nc3c(Cl)cc(Cl)cc32)cc1,GI50,[1],45.9 µM (inactive)
same,GI50,[2],32.2 µM (inactive)
same,GI50,[3],41.9 µM (inactive)
same,GI50,[4],97.9 µM (inactive)
same,GI50,[5],36.6 µM (inactive)
same,GI50,[6],55.8 µM (inactive)
same,GI50,[7],27.8 µM (inactive)
same,GI50,[8],52.6 µM (inactive)
same,GI50,[9],3.41 µM (inactive)
same,GI50,[10],64 µM (inactive)
same,GI50,[11],39 µM (inactive)
same,GI50,[12],32.4 µM
same,GI50,[13],28.6 µM (inactive)
same,GI50,[14],39.7 µM (inactive)
same,GI50,[15],92.5 µM (inactive)
same,GI50,[16],26.1 µM (inactive)
same,GI50,[17],24.7 µM (inactive)
same,GI50,[18],24.2 µM (inactive)
same,GI50,[19],20.6 µM (inactive)
same,GI50,[20],10.1 µM (inactive)
same,GI50,[21],25.6 µM (inactive)
same,GI50,[22],45.9 µM (inactive)
same,GI50,[23],46.2 µM (inactive)
same,GI50,[24],32.5 µM (inactive)
same,GI50,[25],22.5 µM (inactive)
same,GI50,[26],13.5 µM (inactive)
same,GI50,[27],16.4 µM (inactive)
same,GI50,[28],25.2 µM (inactive)
same,GI50,[29],> 100 µM (inactive)
same,GI50,[30],46.3 µM (inactive)
same,GI50,[31],41 µM (inactive)
same,GI50,[32],20.2 µM (inactive)
same,GI50,[33],36.6 µM (inactive)
same,GI50,[34],> 100 µM (inactive)
same,GI50,[35],> 100 µM (inactive)
same,GI50,[36],93.1 µM (inactive)
same,GI50,[37],29.5 µM (inactive)
same,GI50,[38],59.3 µM (inactive)
same,GI50,[39],32.9 µM (inactive)
same,GI50,[40],39.5 µM (inactive)
same,GI50,[41],47.3 µM (inactive)
same,GI50,[42],32.1 µM (inactive)
same,GI50,[43],41.2 µM (inactive)
same,GI50,[44],> 100 µM (inactive)
same,GI50,[45],> 100 µM (inactive)
same,GI50,[46],> 100 µM (inactive)
same,GI50,[47],22.8 µM (inactive)
same,GI50,[48],6.46 µM (inactive)
same,GI50,[49],35.6 µM (inactive)
same,GI50,[50],94.8 µM (inactive)
same,GI50,[51],79.3 µM (inactive)
same,GI50,[52],> 100 µM (inactive)
same,GI50,[53],42.2 µM (inactive)
same,GI50,[54],22.9 µM (inactive)
NNC(=O)Cn1ccnn1,GI50,[1],> 100 µM (inactive)
same,GI50,[3],> 100 µM (inactive)
same,GI50,[4],> 100 µM (inactive)
same,GI50,[5],> 100 µM (inactive)
same,GI50,[6],> 100 µM (inactive)
same,GI50,[7],> 100 µM (inactive)
same,GI50,[8],> 100 µM (inactive)
same,GI50,[55],> 100 µM (inactive)
same,GI50,[9],> 100 µM (inactive)
same,GI50,[10],> 100 µM (inactive)
same,GI50,[12],> 100 µM
same,GI50,[13],> 100 µM (inactive)
same,GI50,[14],> 100 µM (inactive)
same,GI50,[15],> 100 µM (inactive)
same,GI50,[16],> 100 µM (inactive)
same,GI50,[18],> 100 µM (inactive)
same,GI50,[19],> 100 µM (inactive)
same,GI50,[20],> 100 µM (inactive)
same,GI50,[21],> 100 µM (inactive)
same,GI50,[22],> 100 µM (inactive)
same,GI50,[23],> 100 µM (inactive)
same,GI50,[24],> 100 µM (inactive)
same,GI50,[25],> 100 µM (inactive)
same,GI50,[27],> 100 µM (inactive)
same,GI50,[28],> 100 µM (inactive)
same,GI50,[30],> 100 µM (inactive)
same,GI50,[31],> 100 µM (inactive)
same,GI50,[56],> 100 µM (inactive)
same,GI50,[32],> 100 µM (inactive)
same,GI50,[35],> 100 µM (inactive)
same,GI50,[36],> 100 µM (inactive)
same,GI50,[37],> 100 µM (inactive)
same,GI50,[57],> 100 µM (inactive)
same,GI50,[58],> 100 µM (inactive)
same,GI50,[39],> 100 µM (inactive)
same,GI50,[41],> 100 µM (inactive)
same,GI50,[42],> 100 µM (inactive)
same,GI50,[43],> 100 µM (inactive)
same,GI50,[45],> 100 µM (inactive)
same,GI50,[46],> 100 µM (inactive)
same,GI50,[47],> 100 µM (inactive)
same,GI50,[48],> 100 µM (inactive)
same,GI50,[49],> 100 µM (inactive)
same,GI50,[50],> 100 µM (inactive)
same,GI50,[51],> 100 µM (inactive)
same,GI50,[52],> 100 µM (inactive)
